How the values were obtained:
KDR = KDR (Homo sapiens (Human), UniProt P35968); assay: KDR autophosphorylation ELISA in HUVEC cells; type: cell-based; settings: cellular, VEGF165 stimulated
Procedure, shortened: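 HUVEC, 24 h serum-free starvation; cpd 8-pt dilution, 0.3% DMSO final, 1 h; VEGF165 100 ng/mL, 5 min; cold lysis; phospho-KDR ELISA; IC50, 4PL.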

AXL = AXL (Homo sapiens (Human), UniProt P30530); assay: AXL autophosphorylation ELISA in A-172 cells; type: cell-based; settings: cellular, Gas6 stimulated
Sequence of AXL (P30530 26-894): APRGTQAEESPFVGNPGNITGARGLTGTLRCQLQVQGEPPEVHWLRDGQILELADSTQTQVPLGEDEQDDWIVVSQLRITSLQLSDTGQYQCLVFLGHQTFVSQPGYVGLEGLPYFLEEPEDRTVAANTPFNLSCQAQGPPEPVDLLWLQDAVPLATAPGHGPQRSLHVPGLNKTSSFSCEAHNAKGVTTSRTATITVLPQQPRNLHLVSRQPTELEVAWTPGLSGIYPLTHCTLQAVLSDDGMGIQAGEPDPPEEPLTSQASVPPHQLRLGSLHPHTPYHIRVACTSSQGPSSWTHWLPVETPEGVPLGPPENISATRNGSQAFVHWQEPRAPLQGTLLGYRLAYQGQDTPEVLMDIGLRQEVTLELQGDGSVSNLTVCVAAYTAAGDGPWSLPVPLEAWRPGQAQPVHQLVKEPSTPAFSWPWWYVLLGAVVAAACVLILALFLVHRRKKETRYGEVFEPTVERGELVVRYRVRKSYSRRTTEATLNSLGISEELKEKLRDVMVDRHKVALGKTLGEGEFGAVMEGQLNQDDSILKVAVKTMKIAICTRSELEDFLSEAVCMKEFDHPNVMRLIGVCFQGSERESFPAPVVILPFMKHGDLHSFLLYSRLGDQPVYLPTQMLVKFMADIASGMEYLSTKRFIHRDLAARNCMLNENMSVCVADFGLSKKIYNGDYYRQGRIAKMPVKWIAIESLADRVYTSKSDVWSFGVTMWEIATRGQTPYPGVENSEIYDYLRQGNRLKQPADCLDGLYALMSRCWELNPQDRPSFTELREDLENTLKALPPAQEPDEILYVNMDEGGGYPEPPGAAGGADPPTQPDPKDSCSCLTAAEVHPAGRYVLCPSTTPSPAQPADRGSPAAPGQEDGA
Procedure, shortened: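 Serum-starved (24 h) A-172 glioblastoma cells pretreated 1 h with compounds (8-point curve, 0.3% DMSO), then stimulated 15 min with 1 μg/mL Gas6. Lysate phospho-AXL measured by sandwich ELISA against a phospho-AXL standard; IC50 from 4-parameter logistic fit between DMSO and reference-inhibitor controls.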

[1] = target: Human Axl (residues H473-A894 with Q764R) (Homo sapiens (Human), UniProt P30530, Q764R); assay: Human AXL kinase assay (33P radiometric, KinaseProfiler); type: biochemical; settings: 10 μM ATP
Sequence of Human Axl (residues H473-A894 with Q764R) (P30530 473-894 Q764R): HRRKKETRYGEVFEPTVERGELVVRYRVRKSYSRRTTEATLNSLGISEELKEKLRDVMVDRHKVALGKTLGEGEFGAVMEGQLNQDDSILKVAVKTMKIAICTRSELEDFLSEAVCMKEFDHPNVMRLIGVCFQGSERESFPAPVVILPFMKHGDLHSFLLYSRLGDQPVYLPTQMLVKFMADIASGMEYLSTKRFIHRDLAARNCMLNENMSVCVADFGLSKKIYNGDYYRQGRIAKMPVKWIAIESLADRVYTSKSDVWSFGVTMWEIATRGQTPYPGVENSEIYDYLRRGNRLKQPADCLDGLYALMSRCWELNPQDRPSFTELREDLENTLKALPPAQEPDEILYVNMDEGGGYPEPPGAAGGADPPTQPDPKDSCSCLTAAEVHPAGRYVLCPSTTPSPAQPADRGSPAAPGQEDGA

Sequence of KDR (P35968 20-1356): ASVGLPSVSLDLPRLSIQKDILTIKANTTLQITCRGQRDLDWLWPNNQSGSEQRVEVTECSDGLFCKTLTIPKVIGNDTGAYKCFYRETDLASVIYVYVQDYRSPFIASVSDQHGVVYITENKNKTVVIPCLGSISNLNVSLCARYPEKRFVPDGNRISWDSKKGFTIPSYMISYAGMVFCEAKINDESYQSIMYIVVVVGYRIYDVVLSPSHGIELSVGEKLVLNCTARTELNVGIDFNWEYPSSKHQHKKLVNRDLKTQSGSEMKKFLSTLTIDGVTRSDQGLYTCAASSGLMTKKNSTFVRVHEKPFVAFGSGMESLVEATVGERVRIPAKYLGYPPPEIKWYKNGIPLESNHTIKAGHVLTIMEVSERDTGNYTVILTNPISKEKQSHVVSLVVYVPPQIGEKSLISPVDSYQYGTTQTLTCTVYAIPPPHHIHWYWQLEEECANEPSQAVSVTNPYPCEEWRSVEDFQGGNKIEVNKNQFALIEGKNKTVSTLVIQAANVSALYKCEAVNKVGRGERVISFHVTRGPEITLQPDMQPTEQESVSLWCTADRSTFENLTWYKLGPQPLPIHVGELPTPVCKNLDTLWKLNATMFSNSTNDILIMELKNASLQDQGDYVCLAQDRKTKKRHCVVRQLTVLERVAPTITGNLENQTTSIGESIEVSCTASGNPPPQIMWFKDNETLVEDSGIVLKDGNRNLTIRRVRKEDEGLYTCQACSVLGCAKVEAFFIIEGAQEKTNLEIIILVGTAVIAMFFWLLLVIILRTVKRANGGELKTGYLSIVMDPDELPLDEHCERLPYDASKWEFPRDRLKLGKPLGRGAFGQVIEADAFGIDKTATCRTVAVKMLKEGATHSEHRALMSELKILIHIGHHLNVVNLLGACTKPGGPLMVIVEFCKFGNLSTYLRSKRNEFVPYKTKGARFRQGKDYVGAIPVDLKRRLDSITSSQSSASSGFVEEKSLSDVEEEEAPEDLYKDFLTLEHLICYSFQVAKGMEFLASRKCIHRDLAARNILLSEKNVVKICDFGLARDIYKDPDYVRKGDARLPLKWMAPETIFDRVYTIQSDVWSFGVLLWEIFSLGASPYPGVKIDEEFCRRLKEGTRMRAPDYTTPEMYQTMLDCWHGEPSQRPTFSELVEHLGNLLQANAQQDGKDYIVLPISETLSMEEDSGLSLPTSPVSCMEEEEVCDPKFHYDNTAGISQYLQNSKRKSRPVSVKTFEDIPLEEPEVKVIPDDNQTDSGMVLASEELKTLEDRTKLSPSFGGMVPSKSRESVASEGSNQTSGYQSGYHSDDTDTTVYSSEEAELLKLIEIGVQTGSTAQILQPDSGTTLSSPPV

| SMILES | IC50 (KDR) [nM] | IC50 (AXL) [nM] | IC50 [1] [nM] |
| --- | --- | --- | --- |
| COc1cc2nccc(Oc3ccc(NC(=O)C4(C(=O)Nc5ccc(F)cc5)CC4)cc3F)c2cc1C(N)=O [Compound 133, 1-N′-[4-(6-carbamoyl-7-methoxyquinolin-4-yl)oxy-3-fluorophenyl]-1-N-(4-fluorophenyl)cyclopropane-1,1-dicarboxamide] | ≤ 10 | ≤ 10 | ≤ 10 |
| CNC(=O)c1cc2c(Oc3ccc(NC(=O)C4(C(=O)Nc5ccc(F)cc5)CC4)cc3Cl)ccnc2cc1OC [Compound 134, 1-N′-[3-chloro-4-[7-methoxy-6-(methylcarbamoyl)quinolin-4-yl]oxyphenyl]-1-N-(4-fluorophenyl)cyclopropane-1,1-dicarboxamide] | ≤ 10 | ≤ 10 | ≤ 10 |
| CNC(=O)c1cc2c(Oc3ccc(NC(=O)C4(C(=O)Nc5ccc(F)cc5)CC4)cc3F)ccnc2cc1OC [Compound 135, 1-N′-[3-fluoro-4-[7-methoxy-6-(methylcarbamoyl)quinolin-4-yl]oxyphenyl]-1-N-(4-fluorophenyl)cyclopropane-1,1-dicarboxamide] | ≤ 10 | ≤ 10 | ≤ 10 |
| COC(=O)c1cc2nccc(Oc3ccc(NC(=O)C4(C(=O)Nc5ccc(F)cc5)CC4)cc3)c2cc1C [Compound 140, methyl 4-[4-[[1-[(4-fluorophenyl)carbamoyl]cyclopropanecarbonyl]amino]phenoxy]-6-methylquinoline-7-carboxylate] | 10 to 100 | 10 to 100 | 10 to 100 |
| Cc1cc2c(Oc3ccc(NC(=O)C4(C(=O)Nc5ccc(F)cc5)CC4)cc3)ccnc2cc1C(N)=O [Compound 142, 1-N-[4-(7-carbamoyl-6-methylquinolin-4-yl)oxyphenyl]-1-N′-(4-fluorophenyl)cyclopropane-1,1-dicarboxamide] | 10 to 100 | 10 to 100 | ≤ 10 |
| CNC(=O)c1cc2nccc(Oc3ccc(NC(=O)C4(C(=O)Nc5ccc(F)cc5)CC4)cc3)c2cc1C [Compound 143, 1-N′-(4-fluorophenyl)-1-N-[4-[6-methyl-7-(methylcarbamoyl)quinolin-4-yl]oxyphenyl]cyclopropane-1,1-dicarboxamide] | 100 to 300 | 10 to 100 | 10 to 100 |
| COC(=O)c1cc2nccc(Oc3ccc(NC(=O)C4(C(=O)Nc5ccc(F)cc5)CC4)cc3)c2cc1OC [Compound 150, methyl 4-[4-[[1-[(4-fluorophenyl)carbamoyl]cyclopropanecarbonyl]amino]phenoxy]-6-methoxyquinoline-7-carboxylate] | ≤ 10 | 10 to 100 | 10 to 100 |
| COc1cc2c(Oc3ccc(NC(=O)C4(C(=O)Nc5ccc(F)cc5)CC4)cc3)ccnc2cc1C(N)=O [Compound 152, 1-N-[4-(7-carbamoyl-6-methoxyquinolin-4-yl)oxyphenyl]-1-N′-(4-fluorophenyl)cyclopropane-1,1-dicarboxamide] | 100 to 300 | 10 to 100 | 10 to 100 |
| CNC(=O)c1cc2nccc(Oc3ccc(NC(=O)C4(C(=O)Nc5ccc(F)cc5)CC4)cc3)c2cc1OC [Compound 153, 1-N′-(4-fluorophenyl)-1-N-[4-[6-methoxy-7-(methylcarbamoyl)quinolin-4-yl]oxyphenyl]cyclopropane-1,1-dicarboxamide] | 10 to 100 | 10 to 100 | 10 to 100 |
| COC(=O)c1ccc2c(Oc3ccc(NC(=O)C4(C(=O)Nc5ccc(F)cc5)CC4)cc3)ccnc2c1 [Compound 162, methyl 4-[4-[[1-[(4-fluorophenyl)carbamoyl]cyclopropanecarbonyl]amino]phenoxy]quinoline-7-carboxylate] | 10 to 100 | > 300 | 10 to 100 |
| NC(=O)c1ccc2c(Oc3ccc(NC(=O)C4(C(=O)Nc5ccc(F)cc5)CC4)cc3)ccnc2c1 [Compound 164, 1-N-[4-(7-carbamoylquinolin-4-yl)oxyphenyl]-1-N′-(4-fluorophenyl)cyclopropane-1,1-dicarboxamide] | 10 to 100 | ≤ 10 | ≤ 10 |

From patent publication US11542259B2, “Compounds for the treatment of kinase-dependent disorders” (Exelixis, Inc., priority 2018, dated 2023)
